Test system: S91I3 (mouse melanoma)
Assay: Cell photosensitization, 748 nm diode laser, resazurin
Assay type: cell-based
Conditions: 6 J/cm^2 diode laser irradiation at 28.5 mW
Method: The cell lines employed in laser irradiation were the HT-29 (human colon carcinoma), PC-3 (human prostate carcinoma), SW2 (human small cell lung cancer), A-549 (human non-small cell lung cancer). S91/I3 (mouse melanoma) and CT26 (mouse colon carcinoma). They were used both for cytotoxicity and photocytotoxicity experiments. PC-3. SW2 and S91113 cells were cultured in RPMI-1640 medium (Sigma-Aldrich, Steinheim, Germany) and HT-29, A-549 and CT26 cells were cultured in Dulbecco's Modified Eagle Medium (DMEM) (Cambrex Bioscience, Verviers, Belgium). Both cell culture mediums were supplemented with 10% heat-inactivated Fetal Bovine Serum (FBS) (Cambrex Bioscience, Verviers, Belgium) and 100 IU/ml penicillin-100 μg/ml streptomycin (Cambrex Bioscience, Verviers, Belgium). […] For the in vitro studies, cells at 85-90% confluence, were detached with Trypsin-Versene-EDTA solution (Cambrex Bioscience, Verviers, Belgium), counted and seeded in flat-bottom 96-well plates at the desired densities.
Cell viability assay. In the end of the experiences cell viability was evaluated by the resazurin reduction assay. […] The absorbance values of each well were measured at 540 nm and 630 nm using a microplate reader Multiskan Ex (Thermo-Electron Corporation, Vartaa, Finland).
Cell photosensitization. […] Cell viability was evaluated approximately 24 h after the irradiation.

SMILES: O=S(=O)(O)c1ccc(Cl)c(-c2c3nc(c(-c4c(Cl)ccc(S(=O)(=O)O)c4Cl)c4ccc([nH]4)c(-c4c(Cl)ccc(S(=O)(=O)O)c4Cl)c4nc(c(-c5c(Cl)ccc(S(=O)(=O)O)c5Cl)c5ccc2[nH]5)CC4)CC3)c1Cl [Luzitin-Cl2, 5,10,15,20-tetrakis(2,6-dichloro-3-sulfonylphenyl)bacteriochlorin]
- concentration of sensitizer required to kill 90% of cells (LD90): 40 µM
